Laboratory results from ChEMBL document CHEMBL1201862, “PubChem BioAssay data set” (2004).
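Growth conditions: 96-well plates. Treatment: test compound, 48 hours, 5 concentrations. Analysis: linear interpolation between bracketing concentrations; unreached endpoints set to highest concentration. GI50 is the concentration that inhibits growth by half.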 Active and inactive are the calls of the source. Rule as the data show it: active = GI50 up to about 1.1 µM and inactive = higher.

What was measured:
Assay in all cases: DTP human tumour cell line panel, 48 h
MDA-MB-231 = tested on: MDA-MB-231
TK-10 = tested on: TK-10
RXF 393 = tested on: RXF 393
DU-145 = tested on: DU-145
LOX IMVI = tested on: LOX IMVI
NCI-H23 = tested on: NCI-H23
SN12C = tested on: SN12C
SF-268 = tested on: SF-268
OVCAR-5 = tested on: OVCAR-5
HT-29 = tested on: HT-29
MOLT-4 = tested on: MOLT-4
SW-620 = tested on: SW-620
PC-3 = tested on: PC-3
Malme-3M = tested on: Malme-3M
MDA-MB-435 = tested on: MDA-MB-435
NCI-H460 = tested on: NCI-H460
K562 = tested on: K562
SNB-75 = tested on: SNB-75
COLO 205 = tested on: COLO 205
RPMI-8226 = tested on: RPMI-8226

Measured: GI50

CC1CCC(O)(C(C)(C(=O)O)c2ccccc2)CC1 (configuration not stated)
inactive: MDA-MB-231 > 100 µM | TK-10 > 100 µM | RXF 393 > 100 µM | DU-145 > 100 µM | LOX IMVI > 100 µM | NCI-H23 > 100 µM | SN12C > 100 µM | SF-268 > 100 µM | OVCAR-5 > 100 µM | HT-29 > 100 µM | MOLT-4 22 µM | SW-620 > 100 µM | PC-3 > 100 µM | Malme-3M 63.4 µM | MDA-MB-435 > 100 µM | NCI-H460 42.8 µM | K562 > 100 µM

O=[N+]([O-])c1ccc2[nH]c(-c3ccc(Cl)cc3)nc2c1
inactive: MDA-MB-231 15.5 µM | TK-10 32.6 µM | DU-145 25.2 µM | LOX IMVI 18.1 µM | SNB-75 25 µM | COLO 205 16.7 µM | NCI-H23 25.3 µM | SN12C 29.7 µM | SF-268 19 µM | HT-29 18.5 µM | MOLT-4 25.4 µM | SW-620 32.7 µM | PC-3 21.4 µM | Malme-3M 28.4 µM | MDA-MB-435 23.6 µM | NCI-H460 19.5 µM | RPMI-8226 23.2 µM

OCC1C(OCc2ccccc2)C(OCc2ccccc2)C(OCc2ccccc2)CN1Cc1ccccc1 (configuration not stated)
inactive: MDA-MB-231 21.3 µM | TK-10 42.8 µM | RXF 393 17.4 µM | DU-145 > 100 µM | LOX IMVI 31.3 µM | SNB-75 13 µM | COLO 205 14.3 µM | NCI-H23 15.4 µM | SN12C 14.5 µM | SF-268 65.5 µM | OVCAR-5 37.5 µM | HT-29 9.62 µM | MOLT-4 7.62 µM | SW-620 53 µM | PC-3 13 µM | Malme-3M 27.9 µM | MDA-MB-435 24.8 µM | NCI-H460 14.5 µM | K562 16.3 µM

CC(C)=CC(=O)c1[nH]c2ccccc2c1CC(=O)NCCc1c[nH]cn1
inactive: MDA-MB-231 > 100 µM | TK-10 > 100 µM | RXF 393 > 100 µM | DU-145 > 100 µM | LOX IMVI > 100 µM | SNB-75 > 100 µM | COLO 205 > 100 µM | NCI-H23 > 100 µM | SN12C > 100 µM | SF-268 > 100 µM | OVCAR-5 > 100 µM | HT-29 > 100 µM | MOLT-4 > 100 µM | SW-620 > 100 µM | PC-3 > 100 µM | Malme-3M > 100 µM | MDA-MB-435 > 100 µM | NCI-H460 > 100 µM | K562 > 100 µM

CC1(C)C/C(=N/O)c2c(nc3ccc4ccccc4c3c2-c2ccc(Cl)cc2)C1
inactive: MDA-MB-231 11.6 µM | TK-10 16.1 µM | RXF 393 17.6 µM | DU-145 16.5 µM | LOX IMVI 13.7 µM | SNB-75 16.2 µM | COLO 205 18.2 µM | NCI-H23 22 µM | SN12C 10.8 µM | SF-268 14.2 µM | OVCAR-5 40.7 µM | HT-29 15.4 µM | MOLT-4 18.2 µM | SW-620 18.3 µM | PC-3 25.9 µM | MDA-MB-435 60.1 µM | NCI-H460 6.14 µM | RPMI-8226 27.2 µM | K562 19 µM

O=C(Nc1sccc1S(=O)(=O)c1ccc(Cl)cc1)C(F)(F)F
inactive: MDA-MB-231 13.7 µM | TK-10 78.7 µM | DU-145 31.6 µM | LOX IMVI 31 µM | SNB-75 20.9 µM | COLO 205 17.1 µM | NCI-H23 24.1 µM | SN12C 10.3 µM | SF-268 17.5 µM | OVCAR-5 48.4 µM | HT-29 25 µM | MOLT-4 15 µM | SW-620 53.2 µM | PC-3 21.5 µM | Malme-3M 27.2 µM | MDA-MB-435 39.1 µM | NCI-H460 27.4 µM | RPMI-8226 3.88 µM | K562 11.5 µM

Cn1c(=O)n2n(c1=O)C([S+]([O-])c1ccccc1)C2 (configuration not stated)
inactive: MDA-MB-231 > 100 µM | TK-10 > 100 µM | RXF 393 > 100 µM | DU-145 > 100 µM | LOX IMVI 38.9 µM | SNB-75 > 100 µM | COLO 205 > 100 µM | NCI-H23 > 100 µM | SN12C > 100 µM | SF-268 > 100 µM | OVCAR-5 > 100 µM | HT-29 > 100 µM | MOLT-4 18.5 µM | SW-620 > 100 µM | PC-3 33.4 µM | MDA-MB-435 > 100 µM | NCI-H460 > 100 µM | RPMI-8226 > 100 µM | K562 > 100 µM

CCOP(=O)(OCC)/C(C#N)=C/c1coc2cc(C)cc(C)c2c1=O
inactive: MDA-MB-231 > 100 µM | DU-145 > 100 µM | LOX IMVI > 100 µM | SNB-75 > 100 µM | COLO 205 > 100 µM | NCI-H23 > 100 µM | SN12C > 100 µM | SF-268 > 100 µM | OVCAR-5 > 100 µM | HT-29 > 100 µM | MOLT-4 > 100 µM | SW-620 > 100 µM | PC-3 > 100 µM | Malme-3M > 100 µM | MDA-MB-435 > 100 µM | NCI-H460 > 100 µM | RPMI-8226 > 100 µM | K562 > 100 µM

O=C1CSC(c2ccc(Cl)cc2)N1c1ccc(-c2ccc(-n3c(-c4ccccc4)nc4ccccc4c3=O)cc2)cc1 (configuration not stated)
inactive: MDA-MB-231 38.8 µM | TK-10 69 µM | DU-145 49.1 µM | LOX IMVI 17.7 µM | SNB-75 4 µM | COLO 205 27.8 µM | NCI-H23 34.1 µM | SN12C 68.1 µM | SF-268 21.6 µM | OVCAR-5 > 10 µM | HT-29 15.2 µM | MOLT-4 17.7 µM | SW-620 11.8 µM | PC-3 26.1 µM | Malme-3M 28.4 µM | MDA-MB-435 27.4 µM | NCI-H460 67.1 µM | RPMI-8226 55.7 µM | K562 37.2 µM

COC(=O)C1=C(C(=O)OC)C(OO)(c2ccccc2)OC1=O (configuration not stated)
inactive: MDA-MB-231 58.2 µM | TK-10 > 100 µM | RXF 393 > 100 µM | DU-145 > 100 µM | LOX IMVI 31.3 µM | SNB-75 50.7 µM | COLO 205 > 100 µM | NCI-H23 > 100 µM | SN12C 86.3 µM | OVCAR-5 40.6 µM | HT-29 35.9 µM | MOLT-4 > 100 µM | SW-620 > 100 µM | PC-3 38.6 µM | Malme-3M > 100 µM | MDA-MB-435 > 100 µM | NCI-H460 48.6 µM | K562 52.7 µM

COc1ccc(C2(O)C(S(=O)(=O)c3ccc(C)cc3)=Cc3ccc(OC)cc32)cc1 (configuration not stated)
inactive: MDA-MB-231 > 100 µM | TK-10 46.5 µM | DU-145 71.3 µM | LOX IMVI > 100 µM | SNB-75 25.9 µM | COLO 205 > 100 µM | NCI-H23 > 100 µM | SN12C 73.8 µM | SF-268 31.6 µM | OVCAR-5 > 100 µM | HT-29 > 100 µM | MOLT-4 > 100 µM | SW-620 > 100 µM | PC-3 53.8 µM | MDA-MB-435 > 100 µM | NCI-H460 > 100 µM | RPMI-8226 > 100 µM | K562 > 100 µM
